Assay results: patent US20260365647A1, “AKT1 MODULATORS” (Alterome Therapeutics, Inc., priority 2022, published 2026)
Blank lines part the entries; values can stand above or below the compound they belong to.

Molecular target: T1, AKT1-E17K (Homo sapiens, UniProt P31749, E17K)
T1 construct: host or cells: HEK-293 (ATCC CRL-1573)
Assay: NanoBRET Target Engagement (TE) Assay
Type: cell-based
In short: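 Live cells transiently expressing NanoLuc-AKT1 E17K fusion, incubated 2 h with tracer and compound before substrate plus extracellular NanoLuc inhibitor were added. BRET read at 450/600 nm; EC50 from variable-slope sigmoidal fit of tracer displacement.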

T1 sequence (P31749 whole entry E17K): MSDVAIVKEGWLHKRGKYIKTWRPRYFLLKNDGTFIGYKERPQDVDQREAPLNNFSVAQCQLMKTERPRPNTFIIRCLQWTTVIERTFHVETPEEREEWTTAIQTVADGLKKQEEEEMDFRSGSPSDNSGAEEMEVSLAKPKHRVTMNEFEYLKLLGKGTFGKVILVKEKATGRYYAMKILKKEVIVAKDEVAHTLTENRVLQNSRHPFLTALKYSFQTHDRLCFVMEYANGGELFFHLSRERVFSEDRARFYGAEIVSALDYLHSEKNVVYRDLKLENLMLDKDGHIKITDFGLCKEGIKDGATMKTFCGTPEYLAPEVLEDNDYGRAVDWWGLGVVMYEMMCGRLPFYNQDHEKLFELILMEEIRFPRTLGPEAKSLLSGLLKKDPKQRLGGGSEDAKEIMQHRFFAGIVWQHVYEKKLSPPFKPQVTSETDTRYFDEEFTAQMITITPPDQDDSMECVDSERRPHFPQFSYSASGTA

Structure (SMILES): Nc1ncccc1-c1nc2ccc(-c3ccccc3)nc2n1-c1ccc(CN2C3CCC2CN(C(=O)c2ccc(C=O)c(O)c2)C3)cc1 [Example 113, 4-(8-(4-(2-(2-Aminopyridin-3-yl)-5-phenyl-3H-imidazo[4,5-b]pyridin-3-yl)benzyl)-3,8-diazabicyclo[3.2.1]octane-3-carbonyl)-2-hydroxybenzaldehyde]
IC50: 0.06 to 0.6 µM

Structure (SMILES): N#Cc1ccccc1-c1ccc2nc(-c3cccnc3N)n(-c3ccc(CN4CCN(C(=O)c5ccc(O)c(C=O)c5)CC4)cc3)c2n1 [Example 36, 2-(2-(2-aminopyridin-3-yl)-3-(4-((4-(3-formyl-4-hydroxybenzoyl)piperazin-1-yl)methyl)phenyl)-3H-imidazo[4,5-b]pyridin-5-yl)benzonitrile]
IC50: > 0.6 µM

Structure (SMILES): Nc1ncccc1-c1nc2cccnc2n1-c1ccc(CN2CCN(c3ccc(C=O)c(O)c3)CC2)cc1 [Example 16, 4-(4-(4-(2-(2-Aminopyridin-3-yl)-3H-imidazo[4,5-b]pyridin-3-yl)benzyl)piperazin-1-yl)-2-hydroxybenzaldehyde]
IC50: 0.06 to 0.6 µM

Structure (SMILES): Nc1ncccc1-c1nc2ccc(-c3ccccc3)nc2n1-c1ccc(CN2C[C@@H]3CN(c4ccc(O)c(C=O)c4)C[C@@H]3C2)cc1 [Example 134, 5-((3aR,6aS)-5-(4-(2-(2-Aminopyridin-3-yl)-5-phenyl-3H-imidazo[4,5-b]pyridin-3-yl)benzyl)hexahydropyrrolo[3,4-c]pyrrol-2(1H)-yl)-2-hydroxybenzaldehyde]
IC50: 0.06 to 0.6 µM

Structure (SMILES): Nc1ncccc1-c1nc2ccc(-c3ccccc3)nc2n1-c1ccc(CN2CCN(c3ccc(C=O)c(O)c3)C3(CC3)C2)cc1 [Example 108, 4-(7-(4-(2-(2-Aminopyridin-3-yl)-5-phenyl-3H-imidazo[4,5-b]pyridin-3-yl)benzyl)-4,7-diazaspiro[2.5]octan-4-yl)-2-hydroxybenzaldehyde]
IC50: 0.06 to 0.6 µM

Structure (SMILES): N#Cc1cccc(-c2ccc3nc(-c4cccnc4N)n(-c4ccc(CN5CCN(C(=O)c6ccc(C=O)c(O)c6)CC5)cc4)c3n2)c1 [Example 35, 3-(2-(2-Aminopyridin-3-yl)-3-(4-((4-(4-formyl-3-hydroxybenzoyl)piperazin-1-yl)methyl)phenyl)-3H-imidazo[4,5-b]pyridin-5-yl)benzonitrile]
IC50: 0.06 to 0.6 µM

Structure (SMILES): Nc1ncccc1-c1nc2ccc(-c3ccccc3)nc2n1-c1ccc(CN2CC3(CCN(C(=O)c4ccc(C=O)c(O)c4)CC3)C2)cc1 [Example 96, 4-(2-(4-(2-(2-Aminopyridin-3-yl)-5-phenyl-3H-imidazo[4,5-b]pyridin-3-yl)benzyl)-2,7-diazaspiro[3.5]nonane-7-carbonyl)-2-hydroxybenzaldehyde]
IC50: 0.06 to 0.6 µM

Other lines, results leading:

IC50: 0.015 to 0.06 µM
Structure (SMILES): C[C@H](NC(=O)c1ccc(O)c(C=O)c1)c1ccc(-n2c(-c3cccnc3N)nc3ccc(-c4ccccc4)nc32)cc1 [Example 140, (S)—N-(1-(4-(2-(2-Aminopyridin-3-yl)-5-phenyl-3H-imidazo[4,5-b]pyridin-3-yl)phenyl)ethyl)-3-formyl-4-hydroxybenzamide]

IC50: 0.06 to 0.6 µM
Structure (SMILES): Nc1ncccc1-c1nc2ccc(C3=CCOCC3)nc2n1-c1ccc(CN2CCN(C(=O)c3ccc(C=O)c(O)c3)CC2)cc1 [Example 30, 4-(4-(4-(2-(2-Aminopyridin-3-yl)-5-(3,6-dihydro-2H-pyran-4-yl)-3H-imidazo[4,5-b]pyridin-3-yl)benzyl)piperazine-1-carbonyl)-2-hydroxybenzaldehyde]

IC50: 0.06 to 0.6 µM
Structure (SMILES): Nc1ncccc1-c1nc2ccc(-c3ccccc3)nc2n1-c1ccc(CN2C[C@@H]3CN(c4ccc(C=O)c(O)c4)C[C@@H]3C2)cc1 [Example 133, 4-((3aR,6aS)-5-(4-(2-(2-Aminopyridin-3-yl)-5-phenyl-3H-imidazo[4,5-b]pyridin-3-yl)benzyl)hexahydropyrrolo[3,4-c]pyrrol-2(1H)-yl)-2-hydroxybenzaldehyde]

IC50: 0.015 to 0.06 µM
Structure (SMILES): Nc1ncccc1-c1nc2ccc(-c3ccccc3)nc2n1-c1ccc(CN2CC[C@@]3(CCN(C(=O)c4ccc(O)c(C=O)c4)C3)C2)cc1 [Example 98, (R)-5-(7-(4-(2-(2-aminopyridin-3-yl)-5-phenyl-3H-imidazo[4,5-b]pyridin-3-yl)benzyl)-2,7-diazaspiro[4.4]nonane-2-carbonyl)-2-hydroxybenzaldehyde]
